ChEMBL document CHEMBL5357075, “Innovative Therapeutic Strategies in TYK2-Targeted Treatments: From Cancer to Autoimmune Disorders” (ACS Med Chem Lett, 2024)
pIC50: −log10 of the molar value.

Columns and labels:
[1] = biological target: T1, Non-receptor tyrosine-protein kinase TYK2 (Homo sapiens, UniProt P29597); assay: Inhibition of TYK2 in HEK-Blue IL-23 cells pretreated for 60 mins followed by IL-23 stimulation for 22 to 24 hrs by Quanti-Blue based SEAP assay; type: cell-based
[2] = biological target: T1, Non-receptor tyrosine-protein kinase TYK2; assay: Inhibition of TYK2 in HEK-Blue alpha/beta cells pretreated for 60 mins followed by IFN-alpha stimulation for 16 to 18 hrs by Quanti-Blue based SEAP assay; type: cell-based

T1 sequence (P29597 whole entry): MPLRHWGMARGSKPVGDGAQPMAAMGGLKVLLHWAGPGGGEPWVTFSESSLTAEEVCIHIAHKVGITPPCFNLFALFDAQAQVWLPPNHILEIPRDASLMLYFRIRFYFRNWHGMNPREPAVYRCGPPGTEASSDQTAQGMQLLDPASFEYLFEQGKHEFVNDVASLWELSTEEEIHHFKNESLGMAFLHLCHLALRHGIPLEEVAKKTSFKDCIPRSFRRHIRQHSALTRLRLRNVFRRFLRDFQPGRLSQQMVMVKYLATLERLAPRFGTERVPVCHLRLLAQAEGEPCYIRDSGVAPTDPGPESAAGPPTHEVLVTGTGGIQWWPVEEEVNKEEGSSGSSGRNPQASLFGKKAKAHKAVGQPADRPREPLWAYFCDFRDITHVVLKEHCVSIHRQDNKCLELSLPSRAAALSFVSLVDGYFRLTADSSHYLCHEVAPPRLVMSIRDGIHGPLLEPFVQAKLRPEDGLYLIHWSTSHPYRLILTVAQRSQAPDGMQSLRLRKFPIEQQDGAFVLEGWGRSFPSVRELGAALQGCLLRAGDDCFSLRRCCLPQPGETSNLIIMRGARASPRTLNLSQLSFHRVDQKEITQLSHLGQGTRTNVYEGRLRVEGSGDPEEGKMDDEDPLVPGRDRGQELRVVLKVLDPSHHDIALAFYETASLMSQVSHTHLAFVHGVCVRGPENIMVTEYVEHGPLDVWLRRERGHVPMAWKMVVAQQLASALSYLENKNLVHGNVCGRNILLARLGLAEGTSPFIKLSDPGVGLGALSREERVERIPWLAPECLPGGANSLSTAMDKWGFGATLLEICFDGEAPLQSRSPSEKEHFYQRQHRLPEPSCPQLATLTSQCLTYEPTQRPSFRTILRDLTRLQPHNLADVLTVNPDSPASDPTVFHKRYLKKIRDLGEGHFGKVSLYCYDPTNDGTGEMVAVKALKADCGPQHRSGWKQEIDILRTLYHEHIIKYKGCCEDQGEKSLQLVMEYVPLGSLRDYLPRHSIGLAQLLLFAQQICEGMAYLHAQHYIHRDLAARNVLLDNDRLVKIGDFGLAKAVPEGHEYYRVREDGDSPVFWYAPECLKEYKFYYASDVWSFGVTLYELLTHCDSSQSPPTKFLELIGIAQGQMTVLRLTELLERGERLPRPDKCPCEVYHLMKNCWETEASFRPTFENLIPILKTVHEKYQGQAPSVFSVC

Row | pIC50 [1] | pIC50 [2] | Structure (SMILES)
1 | > 7.52 | 7.52 | [2H]C([2H])([2H])CC(=O)c1cnc(NC(=O)C2CC2)cc1Nc1nccc2c1N(C)Cc1nn(CC)nc1-2
2 | > 7.52 | 7.52 | [2H]C([2H])([2H])CC(=O)c1cnc(NC(=O)C2CC2)cc1Nc1cccc2c1N(C)Cc1nc(C)nn1-2
3 | > 7.52 | > 7.52 | [2H]C([2H])([2H])CC(=O)c1cnc(NC(=O)C2CC2)cc1Nc1cccc2c1N(C)[C@@H](C)c1nn(C)nc1-2
